According to patent US20250152547A1, “COMPOSITIONS FOR DELIVERY OF LADOSTIGIL” (priority 2019, published 2025):

How the values were obtained:
[1] = Concentration of ladostigil in brain (cortex) of rats after oral or rectal administration (LC-MS/MS); type: in vivo; settings: male, Wistar, rat, read-out: Concentration of ladostigil in brain (cortex), mean ± STD (coefficient of variation)
Protocol: Methods: Male Wister rats weighing 250-270g were used for these experiments. Ladostigil was administered by gavage at a dose of 5 mg/kg (volume 0.25-0.27ml). In other rats, the same dose of ladostigil was administered via a cannula gently inserted into the rectum and pushed forward to reach the colon. The rats were anesthetized with isofluorane and sacrificed by decapitation at 0, 15, 30, 60 or 120 min after ladostigil administration. The brain was removed, and the cortex carefully dissected and stored at-80° C. until further analysis. Blood was collected in heparinized Eppendorf tubes, centrifuged at 4° C., 20,800 g for 10 min and the plasma was stored at −80° C. until further analysis.
(§1) Samples were prepared for LC-MS analysis after precipitating the proteins in plasma and cortical extracts with methanol as described in Moradov et al. (2015). Briefly, rivastigmine 750 ng/ml (internal standard) was added to 50 μl of plasma or supernatant after brain homogenization and ladostigil was extracted with HPLC grade MeOH. 75 μl of double distilled water (DDW) was added to 150 μl of the supernatant to give a final ratio of DDW:MeOH 1:1. The samples were filtered through […] GHP membranes and injected into the LC-MS machine. LC-MS/MS analysis was also performed as described in Moradov et al. (2015).
(§2) Ladostigil and rivastigmine were detected by an AB Sciex (Framingham, MA, USA) Triple Quad™ 5500 mass spectrometer in positive ion mode by electrospray ionization (ESI) and a multiple reaction monitoring (MRM) mode of acquisition. Data acquisition and analysis were performed on a Dell Optiplex 960 computer with Analyst 1.6.2 software distributed by AB Sciex. Quantitative calibration (0-100 ng/ml) was performed before every batch of samples. The calibration curve (y=a+bx) was obtained by linear least-squares regression of the measured peak area (y) versus the concentration added to the biological matrix (x). The limit of quantification (LOQ) of ladostigil in plasma and cortex was 50 pg/ml.

[2] = Blood levels of ladostigil after oral administration, detection time and inter subject variability; type: in vivo, humans and rodent species
Protocol: Ladostigil is well absorbed from the gastro intestinal tract and can be detected in the blood within 15 minutes after oral administration in humans and rodent species. However, the inter subject variability in these blood levels at peak times after administration is very high with coefficients of variation of more than 100% irrespective of the dose administered. (Table 1). This is undesirable and could exacerbate any variability in the response to treatment by ladostigil of potential patients. The wide inter individual variation in blood levels may explain why the therapeutic effect of the drug in the clinical trial was not more pronounced.

[3] = Concentration of ladostigil in plasma of rats after oral or rectal administration (LC-MS/MS); type: in vivo; settings: rat
Protocol: Methods: Male Wister rats weighing 250-270g were used for these experiments. […] In other rats, the same dose of ladostigil was administered via a cannula gently inserted into the rectum and pushed forward to reach the colon. […] The brain was removed, and the cortex carefully dissected and stored at-80° C. until further analysis. Blood was collected in heparinized Eppendorf tubes, centrifuged at 4° C., 20,800 g for 10 min and the plasma was stored at −80° C. until further analysis.
as §1, §2

[4] = Concentration of ladostigil in plasma of human subjects after a single oral dose (LC/MS/MS); type: in vivo, humans; settings: read-out: Concentration of ladostigil in plasma, mean ± STD (coefficient of variation)
[5] = Concentration of ladostigil in brain (cortex) of rats after oral or rectal administration (LC-MS/MS); type: in vivo; settings: male, Wistar, rat, read-out: Concentration of ladostigil in brain (cortex), mean ± STD (coefficient of variation); remark: listed apart in the source
[6] = oral administration (gavage) 5 mg/kg
[7] = other: rectal administration, rectal administration 5 mg/kg
[8] = normal healthy subjects aged 18-40, single oral dose 50 mg
[9] = normal healthy subjects aged 18-40, single oral dose 100 mg

C#CCN[C@@H]1CCc2ccc(OC(=O)N(C)CC)cc21 [ladostigil, 6-(N-ethyl, N-methyl, carbamyloxy)-N propargyl-1(R)-aminoindan, tartarate]
concentration at 15 min [1, 6]: 17.9 ng/g | concentration at 30 min [1, 6]: 9.3 ng/g | concentration at 60 min [1, 6]: 6.7 ng/g | concentration at 120 min [1, 6]: 4.9 ng/g | concentration at 15 min [1, 7]: 14.3 ng/g | concentration at 30 min [1, 7]: 11.9 ng/g | concentration at 60 min [1, 7]: 9.3 ng/g | concentration at 120 min [1, 7]: 7.4 ng/g | Coefficient of variation of blood levels (inter subject variability) ([2]; at peak times after oral administration, irrespective of the dose): more than 100% | Time after which ladostigil can be detected in the blood ([2]; oral administration, humans and rodent species): ≤ 15 min | concentration at 15 min ([3]; male, Wistar, other: rectal administration, rats, rectal administration 5 mg/kg, 15 min, read-out: Concentration of ladostigil in plasma, mean ± STD (coefficient of variation)): 60.6 ng/mL | concentration at 30 min ([3]; male, Wistar, other: rectal administration, rats, rectal administration 5 mg/kg, 30 min, read-out: Concentration of ladostigil in plasma, mean ± STD (coefficient of variation)): 47.2 ng/mL | concentration at 60 min ([3]; male, Wistar, other: rectal administration, rats, rectal administration 5 mg/kg, 60 min, * significantly higher than after oral treatment p < 0.05, read-out: Concentration of ladostigil in plasma, mean ± STD (coefficient of variation)): 33.7 ng/mL | concentration at 120 min ([3]; male, Wistar, other: rectal administration, rats, rectal administration 5 mg/kg, 120 min, * significantly higher than after oral treatment p < 0.05, read-out: Concentration of ladostigil in plasma, mean ± STD (coefficient of variation)): 14.1 ng/mL | concentration at 180 min ([3]; male, Wistar, other: rectal administration, rats, rectal administration 5 mg/kg, 180 min, * significantly higher than after oral treatment p < 0.05, read-out: Concentration of ladostigil in plasma, mean ± STD (coefficient of variation)): 13.9 ng/mL | concentration at 15 min ([3]; male, Wistar rats, single oral dose 5 mg/kg, 15 min (Table 1), read-out: Concentration of ladostigil in plasma, mean ± STD (coefficient of variation)): 53.7 ng/mL | concentration at 30 min ([3]; male, Wistar rats, single oral dose 5 mg/kg, 30 min (Table 1), read-out: Concentration of ladostigil in plasma, mean ± STD (coefficient of variation)): 36.4 ng/mL | concentration at 60 min ([3]; male, Wistar rats, single oral dose 5 mg/kg, 60 min (Table 1), read-out: Concentration of ladostigil in plasma, mean ± STD (coefficient of variation)): 8.3 ng/mL | concentration at 120 min ([3]; male, Wistar rats, single oral dose 5 mg/kg, 120 min (Table 1), read-out: Concentration of ladostigil in plasma, mean ± STD (coefficient of variation)): 4.9 ng/mL | concentration at 180 min ([3]; male, Wistar rats, single oral dose 5 mg/kg, 180 min (Table 1), read-out: Concentration of ladostigil in plasma, mean ± STD (coefficient of variation)): 2.4 ng/mL | concentration at 15 min ([3]; Wistar rats, single oral dose 1 mg/kg, 15 min, read-out: Concentration of ladostigil in plasma, mean ± STD (coefficient of variation)): 18.7 ng/mL | concentration at 30 min ([3]; Wistar rats, single oral dose 1 mg/kg, 30 min, read-out: Concentration of ladostigil in plasma, mean ± STD (coefficient of variation)): 12.3 ng/mL | concentration at 60 min ([3]; Wistar rats, single oral dose 1 mg/kg, 60 min, read-out: Concentration of ladostigil in plasma, mean ± STD (coefficient of variation)): 6.7 ng/mL | concentration at 120 min ([3]; Wistar rats, single oral dose 1 mg/kg, 120 min, read-out: Concentration of ladostigil in plasma, mean ± STD (coefficient of variation)): 1.6 ng/mL | concentration at 15 min [4, 8]: 3.74 ng/mL | concentration at 30 min [4, 8]: 18 ng/mL | concentration at 60 min [4, 8]: 8.29 ng/mL | concentration at 120 min [4, 8]: 2.88 ng/mL | concentration at 15 min [4, 9]: 9.3 ng/mL | concentration at 30 min [4, 9]: 34.8 ng/mL | concentration at 60 min [4, 9]: 97.6 ng/mL | concentration at 120 min [4, 9]: 44.4 ng/mL | concentration at 180 min ([4]; normal healthy subjects aged 18-40, single oral dose 100 mg, 180 min): 15.3 ng/mL | concentration at 180 min [5, 6]: 2.9 ng/g | concentration at 180 min [5, 7]: 2.8 ng/g
